Source: patent US9303042B2, “Triazolothienopyrimidine compound inhibitors of urea transporters and methods of using inhibitors” (The Regents of the University of California, priority 2012, dated 2016)
Read-outs that look alike come from different tables or passages of the source.

Experiments:
UT-B = molecular target: T1, UT-B (Mus musculus, UniProt Q8VHL0); test: Erythrocyte lysis assay of UT-B inhibition; type: cell-based; parameters: Screening was performed using mouse erythrocytes, which strongly express UT-B; endogenous in cells; host or cells: erythrocytes in whole blood of wild-type CD1 mice; conditions: read-out: IC50
T1 sequence (Q8VHL0 1-384): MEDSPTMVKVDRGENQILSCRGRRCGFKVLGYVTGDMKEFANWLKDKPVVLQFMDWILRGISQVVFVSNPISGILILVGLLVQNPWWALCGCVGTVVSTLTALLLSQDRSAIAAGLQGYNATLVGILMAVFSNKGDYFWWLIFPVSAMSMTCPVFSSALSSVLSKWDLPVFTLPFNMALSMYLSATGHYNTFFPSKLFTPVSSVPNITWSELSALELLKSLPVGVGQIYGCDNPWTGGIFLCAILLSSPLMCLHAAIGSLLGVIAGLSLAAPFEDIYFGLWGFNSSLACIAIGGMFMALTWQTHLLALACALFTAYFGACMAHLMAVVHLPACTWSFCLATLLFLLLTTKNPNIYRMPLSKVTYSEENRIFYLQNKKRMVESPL
Description: Screening was performed using mouse erythrocytes, which strongly express UT-B and are highly water permeable because the cells also express aquaporin-1 (AQP1) water channels. The screening method involved assay of erythrocyte lysis in response to a large, outwardly directed gradient of acetamide, a urea analog that is transported efficiently by UT-B. A large, outwardly directed gradient of acetamide causes transient cell swelling, but little cell lysis, because UT-B-facilitated acetamide efflux limits water influx (see FIG. 1A). UT-B inhibition prevents acetamide efflux, allowing unopposed cell swelling and consequent cell lysis, which was recorded by reduced near-infrared light absorption at 710 nm.
Primary screening was done using a collection of 100,000 diverse, drug-like compounds from commercial sources (ChemDiv, San Diego, Calif.; Asinex, Winston-Salem, N.C.). […] Vigorous mixing was achieved by repeated pipetting. Erythrocyte lysis was quantified by absorbance at 710 nm wavelength, made within 5 min after hypo-osmolar shock. […] For analysis of structure-activity relationships >900 commercially available analogs (ChemDiv and Asinex) were tested.

[1] = In vitro metabolic stability in hepatic microsomes; type: in vitro ADME, rat; conditions: for % Remaining after 10 min incubation with liver microsomes: NADPH, compound 5 μM; for metabolic stability (in words): hepatic microsomes; for % Remaining: parent molecule after 30 min incubation with rat liver microsomes
Description: Compounds, each at 5 μM, were incubated for specified times at 37° C. with rat liver microsomes (1 mg protein/ml; Sigma-Aldrich, St. Louis, Mo.) in potassium phosphate buffer (100 mM) containing 1 mM NADPH. The mixture was then chilled on ice, and 0.5 ml of ice-cold ethyl acetate was added.

[2] = Table 1, commercially available analogues, erythrocyte lysis assay
[3] = Table 2, synthesized inhibitors, red blood cell lysis assay (n = 3), single-site saturation model

Row | SMILES | IC50 (UT-B; [2]) | % Remaining after 10 min incubation with liver microsomes [1] | metabolic stability (in words) [1] | IC50 (UT-B; erythrocyte lysis assay) | IC50 (UT-B; [3]) | % Remaining [1]
1 | COc1ccc(CNc2nc3c(S(=O)(=O)c4ccc(C)c(C)c4)nnn3c3ccsc23)cc1 [Compound 2at, [3-(3,4-dimethyl-benzenesulfonyl)-thieno[2,3-e][1,2,3]triazolo[1,5-a]pyrimidin-5-yl]-(4-methoxy-benzyl)-amine] | 1540 nM | 12% |  |  |  | 
2 | CCc1ccc(S(=O)(=O)c2nnn3c2nc(NCCCOC)c2sccc23)cc1 [Compound 2cb, {3-[4-ethyl-benzenesulfonyl]-thieno[2,3-e][1,2,3]triazolo[1,5-a]pyrimidin-5-yl}-3-methoxypropyl-amine] |  | <2% |  | 212 nM |  | 
3 | O=S(=O)(c1ccc(Br)cc1)c1nnn2c1nc(NCc1cccs1)c1sccc12 [Compound 3i, [3-(4-Bromo-benzenesulfonyl)-thieno[2,3-e][1,2,3]triazolo[1,5-a]pyrimidin-5-yl]-thiophen-2-ylmethyl-amine] |  |  | improved metabolic stability |  | 32 nM | 60%
4 | CC(C)c1ccc(S(=O)(=O)c2nnn3c2nc(NCc2cccs2)c2sccc23)cc1 [Compound 3a, [3-(4-Isopropylbenzenesulfonyl)-thieno[2,3-e][1,2,3]triazolo[1,5-a]pyrimidin-5-yl]-thiophen-2-ylmethyl-amine] | 125 nM |  |  |  | 153 nM | <5%
5 | CC(C)c1ccc(S(=O)(=O)c2nnn3c2nc(NCc2ccco2)c2sccc23)cc1 [Compound 3b, Furan-2-ylmethyl-[3-(4-isopropyl-benzenesulfonyl)-thieno[2,3-e][1,2,3]triazolo[1,5-a]pyrimidin-5-yl]-amine] |  |  |  |  | 16600 nM | >99%
6 | O=S(=O)(c1ccc(OC(F)(F)F)cc1)c1nnn2c1nc(NCc1cccs1)c1sccc12 [Compound 3d, Thiophen-2-ylmethyl-[3-(4-trifluoromethoxy-benzenesulfonyl)-thieno[2,3-e][1,2,3]triazolo[1,5-a]pyrimidin-5-yl]-amine] |  |  | improved metabolic stability |  | 1120 nM | 95%
7 | COCCCNc1nc2c(S(=O)(=O)c3ccccc3)nnn2c2ccsc12 [Compound 2ab, {3-benzenesulfonyl-thieno[2,3-e][1,2,3]triazolo[1,5-a]pyrimidin-5-yl}-3-methoxypropyl-amine] | 4350 nM | 27% |  |  |  | 
8 | O=S(=O)(c1ccc(F)cc1)c1nnn2c1nc(NCc1cccs1)c1sccc12 [Compound 3h, [3-(4-Fluoro-benzenesulfonyl)-thieno[2,3-e][1,2,3]triazolo[1,5-a]pyrimidin-5-yl]-thiophen-2-ylmethyl-amine] |  |  |  |  | 468 nM | 27%
9 | COc1ccc(CNc2nc3c(S(=O)(=O)c4ccc(C(C)C)cc4)nnn3c3ccsc23)cc1 [Compound 3e, [3-(4-Isopropyl-benzenesulfonyl)-thieno[2,3-e][1,2,3]triazolo[1,5-a]pyrimidin-5-yl]-(4-methoxy-benzyl)-amine] |  |  |  |  | 5290 nM | 7%
10 | COc1ccc(S(=O)(=O)c2nnn3c2nc(NCc2cccs2)c2sccc23)cc1 [Compound 3f, [3-(4-Methoxy-benzenesulfonyl)-thieno[2,3-e][1,2,3]triazolo[1,5-a]pyrimidin-5-yl]-thiophen-2-ylmethyl-amine] |  |  |  |  | 104 nM | 6%
11 | Cc1ccc(S(=O)(=O)c2nnn3c2nc(N2CCOCC2)c2sccc23)cc1C [Compound 2an] | 1710 nM | 6% |  |  |  | 
12 | CCc1ccc(S(=O)(=O)c2nnn3c2nc(NCCCN2CCCC2=O)c2sccc23)cc1 [Compound 2cg] | 1500 nM | 2% |  |  |  | 
13 | COCCNc1nc2c(S(=O)(=O)c3ccc(Cl)cc3)nnn2c2ccsc12 [Compound 2bh, {3-[4-chloro-benzenesulfonyl]-thieno[2,3-e][1,2,3]triazolo[1,5-a]pyrimidin-5-yl}-2-methoxyethyl-amine] | 1910 nM | 63% |  |  |  | 
14 | Cc1ccc(C)c(S(=O)(=O)c2nnn3c2nc(NCCC(C)C)c2sccc23)c1 [Compound 2cj] | 1450 nM | 61% |  |  |  | 
15 | Cc1ccc(S(=O)(=O)c2nnn3c2nc(N2CCCCC2)c2sccc23)cc1C [Compound 2az] | 1760 nM | <2% |  |  |  | 

More lines, in order of falling IC50 (UT-B; [2]), values ahead:

Row | IC50 (UT-B; [2]) | % Remaining after 10 min incubation with liver microsomes [1] | SMILES | metabolic stability (in words) [1] | IC50 (UT-B; erythrocyte lysis assay) | IC50 (UT-B; [3]) | % Remaining [1]
16 | 1260 nM | 74% | CCCCNc1nc2c(S(=O)(=O)c3ccc(Cl)cc3)nnn2c2ccsc12 [Compound 2bg] |  |  |  | 
17 | 1040 nM | 15% | COc1ccccc1CNc1nc2c(S(=O)(=O)c3ccc(C)c(C)c3)nnn2c2ccsc12 [Compound 2as, [3-(3,4-dimethyl-benzenesulfonyl)-thieno[2,3-e][1,2,3]triazolo[1,5-a]pyrimidin-5-yl]-(2-methoxy-benzyl)-amine] |  |  |  | 
18 | 1000 nM | 3% | Cc1ccc(S(=O)(=O)c2nnn3c2nc(NCc2ccccc2)c2sccc23)cc1C [Compound 2ao, [3-(3,4-dimethyl-benzenesulfonyl)-thieno[2,3-e][1,2,3]triazolo[1,5-a]pyrimidin-5-yl]-benzyl-amine] |  |  |  | 
19 | 948 nM | 4% | CCc1ccc(S(=O)(=O)c2nnn3c2nc(NC(C)C)c2sccc23)cc1 [Compound 2ce] |  |  |  | 
20 | 891 nM | 26% | CCc1ccc(S(=O)(=O)c2nnn3c2nc(NCC2CCCO2)c2sccc23)cc1 (stereo not drawn) [Compound 2bu, tetrahydrofuran-2-ylmethyl-[3-(4-ethyl-benzenesulfonyl)-thieno[2,3-e][1,2,3]triazolo[1,5-a]pyrimidin-5-yl]-amine] |  |  |  | 
21 | 854 nM | 35% | Cc1ccc(S(=O)(=O)c2nnn3c2nc(NCCC(C)C)c2sccc23)cc1C [Compound 2au] |  |  |  | 
22 | 733 nM | 86% | Cc1ccc(S(=O)(=O)c2nnn3c2nc(NCc2ccc(F)cc2)c2sccc23)cc1 [Compound 2aj, [3-(4-methyl-benzenesulfonyl)-thieno[2,3-e][1,2,3]triazolo[1,5-a]pyrimidin-5-yl]-(4-fluoro-benzyl)-amine] | improved metabolic stability |  |  | 
23 | 711 nM | 14% | COCCNc1nc2c(S(=O)(=O)c3ccc(C(C)C)cc3)nnn2c2ccsc12 [Compound 2bo, {3-[4-isopropyl-benzenesulfonyl]-thieno[2,3-e][1,2,3]triazolo[1,5-a]pyrimidin-5-yl}-2-methoxyethyl-amine] |  |  |  | 
24 | 662 nM | 59% | CCc1ccc(S(=O)(=O)c2nnn3c2nc(NCCC(C)C)c2sccc23)cc1 [Compound 2bv] |  |  |  | 
25 | 585 nM | 34% | CCc1ccc(S(=O)(=O)c2nnn3c2nc(NC(C)c2ccccc2)c2sccc23)cc1 (stereo not drawn) [Compound 2bw, [3-(4-ethyl-benzenesulfonyl)-thieno[2,3-e][1,2,3]triazolo[1,5-a]pyrimidin-5-yl]-(1-phenyl-1-methyl)methyl-amine] |  |  |  | 
26 | 582 nM | 83% | Cc1ccc(S(=O)(=O)c2nnn3c2nc(NCc2ccc(Cl)cc2)c2sccc23)cc1C [Compound 2bc, [3-(3,4-dimethyl-benzenesulfonyl)-thieno[2,3-e][1,2,3]triazolo[1,5-a]pyrimidin-5-yl]-(4-chloro-benzyl)-amine] | improved metabolic stability |  |  | 
27 | 433 nM | <2% | CCc1ccc(S(=O)(=O)c2nnn3c2nc(NCCCOC(C)C)c2sccc23)cc1 [Compound 2cf, {3-[4-ethyl-benzenesulfonyl]-thieno[2,3-e][1,2,3]triazolo[1,5-a]pyrimidin-5-yl}-3-(1-methylethoxyl)propyl-amine] |  |  |  | 
28 | 384 nM | 41% | CCc1ccc(S(=O)(=O)c2nnn3c2nc(NCc2ccc(F)cc2)c2sccc23)cc1 [Compound 2ca, [3-(4-ethyl-benzenesulfonyl)-thieno[2,3-e][1,2,3]triazolo[1,5-a]pyrimidin-5-yl]-(4-fluoro-benzyl)-amine] |  |  |  | 
29 | 291 nM | <2% | CCc1ccc(S(=O)(=O)c2nnn3c2nc(NCc2cccc(OC)c2)c2sccc23)cc1 [Compound 2bx, [3-(4-ethyl-benzenesulfonyl)-thieno[2,3-e][1,2,3]triazolo[1,5-a]pyrimidin-5-yl]-(3-methoxy-benzyl)-amine] |  |  |  | 
